Source: paper PMC12040169 (PLOS Biology, 2025)

Assay: in vitro
Settings: human, hela cells, % viability

Compound	viability at 28.5 h, 10 µM [%]
COc1ccc(-c2onc(C)c2-c2cnn(-c3ccccc3)c2)c(O)c1 [CBK296095]	116
CCOC(=O)c1c(-c2ccc(-c3ccccc3)cc2)csc1NC(=O)c1ccccc1C(=O)O [CBK296096]	106
CCOc1ccc2cc(C3CC(c4ccccc4)=NN3C(=O)CCC(=O)O)c(Cl)nc2c1 (stereo not drawn) [CBK296097]	114
COc1ccc(C=CC(=O)ONC(=O)c2ccc(OC(F)F)cc2)cc1OC [CBK296098]	92.8
O=c1[nH]c2ccc(NC(=S)NCc3ccccc3)cc2[nH]1 [CBK296099]	93.8
CC(C)(CC(=O)Nc1sc2c(c1C(=O)O)CCC2)CC(=O)Nc1sc2c(c1C(=O)O)CCC2 [CBK296100]	92.3
COc1cc(OC)c(NS(=O)(=O)c2cc(C(=O)O)ccc2C)cc1Cl [CBK296105]	101
O=C(O)CCC(=O)N1N=C(c2c(-c3ccccc3)c3cc(Cl)ccc3[nH]c2=O)CC1c1ccccn1 (stereo not drawn) [CBK296106]	97.3
COc1ccc(C(=O)CC(SCC(NC(C)=O)C(=O)O)c2ccc(Cl)cc2)cc1OC (stereo not drawn) [CBK296109]	88.4
O=C(O)c1cccc(Nc2nc3ccccc3nc2NS(=O)(=O)c2ccc(Br)cc2)c1 [CBK296113]	111
COC(=O)CCc1sc(NC(=O)CSCC(=O)O)nc1-c1ccc(OC)cc1 [CBK296116]	93.6
COc1ccc(C2c3cc(OC)c(OC)cc3CC(=O)N2c2cccc(C(=O)O)c2)cc1OC (stereo not drawn) [CBK296118]	94.1
CCOc1ccc(S(=O)(=O)N(C)c2ccc(OCC(=O)O)cc2)cc1 [CBK296119]	102
O=C(O)c1ccc(NC(=O)c2cn(-c3ccccc3)nc2-c2ccccc2)cc1 [CBK296120]	94.4
Cc1c(NS(=O)(=O)c2cc(C(=O)O)c(Cl)cc2Cl)c(=O)n(-c2ccccc2)n1C [CBK296123]	90.3
O=C(O)CCCC(=O)N1N=C(c2cccs2)CC1c1cn(-c2ccccc2)nc1-c1ccccc1 (stereo not drawn) [CBK296124]	90.3
CC(=O)NS(=O)(=O)c1ccc(NC(=O)c2cn(-c3ccccc3)nc2-c2cccs2)cc1 [CBK296125]	86.3
Cc1ccc(-c2nn(-c3ccccc3)cc2C2CC(c3cccs3)=NN2C(=O)CCC(=O)O)cc1 (stereo not drawn) [CBK296126]	107
Cc1ccc2cc(C3CC(c4ccccc4)=NN3C(=O)CCC(=O)O)c(=O)[nH]c2c1 (stereo not drawn) [CBK296127]	109
COc1ccc(C2CC(c3c(-c4ccccc4)c4cc(Cl)ccc4[nH]c3=O)=NN2C(=O)CCC(=O)O)cc1OC (stereo not drawn) [CBK296128]	103
O=C(O)c1ccc(NS(=O)(=O)c2ccc3c(c2)OCCO3)cc1 [CBK296129]	108

Compound	viability at 28.5 h, 10 µM [%]
O=C(O)c1ccc(Cl)c(S(=O)(=O)Nc2ccc(I)cc2)c1 [CBK296132]	83.2
CCOC(=O)c1cc(-c2ccc(OC)cc2)nn1-c1ccc(C(=O)O)cc1 [CBK296133]	87.9
COc1ccc(C2=NN(c3ccc(C(=O)O)cc3)C(c3ccc(OC)c(OC)c3)C2)cc1 (stereo not drawn) [CBK296134]	111
COc1ccc(C=CC(=O)N(C)c2ccccc2C(=O)O)cc1 [CBK296135]	106
COc1cc(C=CC(=O)N(C)c2ccccc2C(=O)O)cc(OC)c1OC [CBK296136]	93.1
O=C(CSc1nc2ccccc2c(=O)n1-c1ccc(F)cc1)Nc1ccc(C(=O)O)cc1 [CBK296140]	96
O=C(NCc1ccc(N2CCCC2=O)cc1)c1cc(Br)ccc1O [CBK296614]	91.2
CNC(=O)c1ccc(NC(=O)CC(C)(C)CC(=O)O)cc1 [CBK296615]	95.8
Cc1cc(NC(=O)C2CC2)sc1C(=O)NC(C)c1ccc(F)cc1F (stereo not drawn) [CBK296625]	104
Cc1cc2oc(=O)cc(COC(=O)c3ccc(-n4cccn4)cc3)c2cc1Cl [CBK296626]	93.9
COc1ccc(OCCN(C)c2cnn(-c3ccc(C(=O)O)cc3)c(=O)c2Cl)cc1 [CBK296627]	104
O=C(O)Cc1ccc(OCC(=O)NCc2ccc(Cl)cc2Cl)cc1 [CBK296628]	109
Cc1oc(CSc2nnc(NCc3ccc(F)cc3)s2)cc1C(=O)O [CBK296629]	91.6
O=C(O)Cc1ccc(OCC(=O)NCCCSc2ccccc2)cc1 [CBK296630]	91.9
O=C(O)C(CCO)Sc1nnc(Nc2ccc(Oc3ccccc3)cc2)s1 (stereo not drawn) [CBK296631]	85.7
Cn1c(Cc2csc(NC(=O)c3ccc(Cl)cc3F)n2)n[nH]c1=S [CBK296635]	94.7
CCn1c2ccccc2c2cc(NC(=O)C(C)Sc3n[nH]c(=O)n3C3CC3)ccc21 (stereo not drawn) [CBK296636]	107
COC(=O)c1c(C)[nH]c(C(=O)N2CCCC2c2cccnc2)c1C (stereo not drawn) [CBK296639]	98.8
COC(=O)c1ccc(F)c(NC(=O)C2CCCC2)c1 [CBK296640]	85.5
CCN(Cc1ccc(OC)c(OC)c1)C(=O)CSc1nc(CC(=O)O)cs1 [CBK296643]	97.5
CCNC(=O)COc1ccc(C=Cc2nc(-c3ccccc3)c(C(=O)O)s2)cc1OCC [CBK296644]	94.6

Compound	viability at 28.5 h, 10 µM [%]
CC1CCN(C(=O)c2cc(-c3ccco3)[nH]n2)CC1 [CBK296648]	101
O=c1oc2ccccc2n1Cc1coc(-c2ccccc2)n1 [CBK296649]	98.1
COc1ccc(N2C(=O)CC(Nc3cc(C(=O)O)ccc3C)C2=O)c(OC)c1 (stereo not drawn) [CBK296650]	114
O=C(COc1ccccc1[N+](=O)[O-])Nc1nc2c(s1)CCC2 [CBK296663]	85.1
O=C(O)CC1(CC(=O)Nc2ccc(N3CCCC3=O)c(Cl)c2)CCCCC1 [CBK296664]	96.3
O=C(c1ccc(Cl)cc1)N1CCN(C(=O)c2cc(O)nc3ccccc23)CC1 [CBK296666]	103
O=C(NCC1(c2ccccc2)CCC1)C1CCCN(C(=O)c2ccoc2)C1 (stereo not drawn) [CBK296670]	85.6
Cc1ccc(S(N)(=O)=O)cc1C(=O)NC(C)CCc1ccccc1 (stereo not drawn) [CBK296671]	87.2
O=C(O)c1cccc(CSCC(=O)N2CCC(Cc3ccccc3)CC2)c1 [CBK296675]	102
COc1cc(C(C)=O)ccc1OCC(O)Cn1c(=O)n(-c2ccccc2)c(=O)c2ccccc21 (stereo not drawn) [CBK296677]	94.4
COc1ccc(C(NC(=O)CSCc2cccc(C(=O)O)c2)c2ccc(OC)cc2)cc1 [CBK296680]	97.6
Cc1cc(N2CCN(C(=O)c3c[nH]c(=O)[nH]3)CC2)nc(C(C)C)n1 [CBK296681]	111
CC(NC(=O)c1nn(-c2ccc(F)cc2)c2c1CCCC2)c1ccc2c(c1)OCCO2 (stereo not drawn) [CBK296682]	103
COc1cc(C(=O)Nc2nc(Cc3n[nH]c(=S)n3C)cs2)ccc1C [CBK296683]	90.6
O=C(c1ccc2c(c1)OCO2)N1CCN(C(=O)c2ccc(Cl)cc2F)CC1 [CBK296685]	99
O=C(NCCCOc1ccccc1)N1CCN(S(=O)(=O)c2ccc(C(F)(F)F)cc2)CC1 [CBK296686]	87.9
Cc1cccc2sc(NC(=O)CCCCCNC(N)=O)nc12 [CBK296689]	106
O=c1c2cccnc2ncn1CC(O)COc1ccc(-c2ccccc2)cc1 (stereo not drawn) [CBK296690]	99.1
CCCCn1c(SCCC(=O)Nc2ccccc2C(=O)c2ccccc2)n[nH]c1=O [CBK296693]	87.3
Cc1ccc(NC(=O)c2ccccc2NS(=O)(=O)c2cccc(C(=O)O)c2)cc1 [CBK296695]	122
Cc1ccc(C)c(-c2csc(NS(=O)(=O)c3cccc(C(=O)O)c3)n2)c1 [CBK296696]	86.7

Compound	viability at 28.5 h, 10 µM [%]
O=C(O)c1cccc(S(=O)(=O)Nc2ccccc2C(=O)NCc2ccccc2)c1 [CBK296697]	106
Cc1cc(C)c(-c2csc(NS(=O)(=O)c3cccc(C(=O)O)c3)n2)cc1C [CBK296698]	118
Cc1nn(-c2ccc(F)cc2)c(C)c1C(=O)NCc1ccnc(N2CCCC2)c1 [CBK296700]	93.3
COCCN(CCOC)C(=O)COc1c(Cl)cc(C(=O)O)cc1Cl [CBK296704]	92.3
CC(C)C(NC(=O)c1ccc(CS(C)(=O)=O)cc1)c1ccc(C(C)(C)C)cc1 (stereo not drawn) [CBK296705]	102
O=C(O)c1sccc1S(=O)(=O)NCc1ccc(COCC(F)(F)F)cc1 [CBK296706]	110
O=C(O)c1sccc1S(=O)(=O)NCc1ccc(Cn2cccn2)cc1 [CBK296707]	99.4
CN(Cc1c(F)cccc1Cl)C(=O)CSc1nc(CC(=O)O)cs1 [CBK296708]	95.3
O=C(c1cccc(S(=O)(=O)Nc2ccc(Br)cc2)c1)N1CCCC1 [CBK296709]	67.4
O=C(O)c1cc(S(=O)(=O)Nc2ccc3nc(N4CCCC4)sc3c2)ccc1Br [CBK296710]	91.5
O=C(Nc1ccnn1Cc1cc(Br)cs1)c1ccc2ncsc2c1 [CBK296713]	105
CN(Cc1nc2ccccc2c(=O)[nH]1)Cc1cc2c(cc1Br)OCCO2 [CBK296715]	108
CCN(CC(=O)Nc1ccc2c(c1)OCCO2)S(=O)(=O)c1ccsc1C(=O)O [CBK296717]	95.5
CC(c1ccccc1)N(C)C(=O)Cn1c(-c2cccs2)n[nH]c1=S (stereo not drawn) [CBK296718]	95.6
CN(CCOc1ccc(Cl)cc1)C(=O)COc1cc2ccccc2cc1C(=O)O [CBK296720]	108
COc1cc(C=CC(=O)O)ccc1OCC(=O)NCC(C)C [CBK296721]	107
CC(Oc1ccc(Br)cc1)C(=O)Nc1nc2c(s1)CCC2 (stereo not drawn) [CBK296723]	84.8
O=C(Nc1nccs1)C1CCCN(C(=O)c2ccco2)C1 (stereo not drawn) [CBK296725]	98.7
O=C(O)c1cc(NS(=O)(=O)c2ccc3c(c2)OCCCO3)ccc1F [CBK296731]	104
CCCCn1c(SCC(=O)N(C)Cc2cnn(-c3ccccc3)c2)n[nH]c1=O [CBK296732]	106
Cc1cccc(-c2n[nH]c(=S)n2CCC(=O)Nc2ccc(N3CCCC3=O)c(C)c2)c1 [CBK296733]	89.1
